Tests used:
[1] = test system: 2-5A binding proteins from L929 cells (believed to be forms of RNase L); test: Photoaffinity labelling / covalent cross-linking of 2-5A binding proteins in interferon-treated L929 cell extracts (SDS-PAGE, autoradiography); parameters: species or system murine; conditions: for UV exposure time for maximal photo-crosslinking: 254 nm, 0° C.; for molecular weight of protein(s) specifically photolabelled / cross-linked: L929 cell extracts; for molecular weight of protein(s) specifically photolabelled / cross-linked / number of proteins photolabelled / cross-linked: 60 s UV; for number of proteins photolabelled / cross-linked: interferon-treated L929 cell extracts
Description: FIG. 3A is an autoradiogram following SDS-PAGE of interferon-treated L929 cell extracts incubated with [gamma-^32 P]2-azido-p3 A3 at 1×10^-6 M in the absence (lane 1) or presence of p3A3 at 1×10^-5 M and 1×10^-4 M (lanes 2 and 3, respectively).The samples were UV-irradiated for 60 seconds at 0° C. prior to electrophoresis. Photolabelled proteins were detected by autoradiography. Molecular weight standards are indicated.
FIG. 4A is an autoradiogram following SDS-PAGE of interferon treated L929 cell extracts incubated with [alpha-^32 P]8-azido-p3 A3 at 1×10^-6 M in the absence (lanes 1 and 2) or presence of the following: p3 A3 at 1×10^-4 M (lane 3); p3 A3 at 5×10^-4 M (lane 4); or 3'-5'A3 at 5×10^-4 M (lane 5). The samples were UV irradiated (lanes 2-6) for 60 seconds at 0° C. prior to electrophoresis. Under identical experimental conditions, the L929 cell extract was incubated with p3 A4 [^32 P]pCp at 1×10^-8 M (lane 6). Photolabelled proteins were detected by autoradiography.
Ten microliters of L929 cell extracts (100 micrograms protein/assay) were combined with 10 microliters of a buffer (140 mM NaCl, 35 mM Tris-HCl, pH 7.5) and were incubated in the presence of 1×10^-6 M [gamma-^32 p]2-azido -p3 A3 (0.9 microCi/nmol) or 1×10^-6 M [alpha-^32 p]8-azido -p3 A3 (0.9 microCi/nmol) or 1×10^-9 M p3 A4 [^32 P]pCp (3 mCi/nmol) in a 30 microliter final volume. The samples, after incubation in microcentrifuge tubes at 0° C. for 90 minutes, were transferred into ice-mold porcelain spot plates and photolysed for 60 seconds using a 254 nm UVG-11 Mineralight lamp (Ultraviolet Products, Inc.) at a distance of 2 cm (1.0 J/m^2). Sixty microliters of a reductive, protein-solubilizing mixture (15.4 mg/ml dithiothreitol, 25% w/v sucrose, 2.5% sodium dodecylsulfate, 25 mM TrisHCl, pH 8.0, 0.0025% pyronine Y) were added to the samples. Photo-incorporation of the ^32 P-labeled 2-azido-p3 A3 and 8-azido-p3 A3 into the L929 protein was determined by SDS-PAGE (Lamelli, Nature (London) 227:680-685 (1970)). The SDS-PAGE gels were stained with Coomassie blue, dried and subject to autoradiography at -70° C. with X-Omat film (Kodak).

RNase L [2] = test: rRNA cleavage assay: activation of RNase L in L929 cell extracts; format: biochemical, murine; conditions: for final concentration at which RNase L is activated to degrade rRNA to specific cleavage products / concentration dependence of rRNA degradation / potency in rRNA degradation relative to authentic p3 A3: L929 cell extracts; for final concentration at which RNase L is activated to degrade rRNA to specific cleavage products: "as low as"; for concentration dependence of rRNA degradation / potency in rRNA degradation relative to authentic p3 A3 / biological activity (RNase L binding and activation) relative to authentic 2-5A: in words
Description: FIG. 2 represents a rRNA cleavage assay with 2-azido-p3 A3 and 8-azido-p3 A3 L929 cell extracts were incubated in the absence (lane 4) or presence of p3 A3 (lane 1), 2-azido-p3 A3 (lane 2), or 8-azido-p3 A3 (lane 3) at 1 x 10^-8 M final concentrations. The positions of 28S and 18S rRNA, and the positions of RNase L specific cleavage products ("SCP"), are indicated.
Activation of RNase L by the compounds of the invention was also measured in a ribosomal RNA cleavage assay using L929 cell extracts. The extracts were prepared in glycerol buffer in 15 microliters final volume as described by Kariko et al., Biochem. Biophys. Res. Commun. 128:695-698 (1985).

RNase L [3] = test: Core-cellulose assay: activation of partially purified RNase L to hydrolyze poly(U)[^32 P]pCp; format: biochemical, murine; conditions: in words
Source text: The recently developed core cellulose assay of Silverman, Anal. Biochem. 144:450-460 (1985), which involves the immobilization and partial purification of RNase L on 2-5A core-cellulose, was used to measure the ability of 8-azido-p3 A3 to activate RNase L. For this purpose, poly(U)[^32 P]pCp was synthesized from poly(U) using T4 RNA ligase, as described by Silverman. 8-Azido-p3 A3 (solid circle data

RNase L [4] = test: rRNA cleavage assay with photolabelled RNase L/8-azido-p3 A3 complex; format: biochemical, murine; conditions: 1×10^-6 M 8-azido-p3 A3, 60 s UV 254 nm; in words
Description: Ten microliters of L929 cell extract (100 microgram protein/assay) were combined with ten microliters buffer (140 mM NaCl, 35 mM Tris-HCl, pH 7.5) and were incubated in the presence of 1×10^-6 M 8-azido-p3 A3 in a 30 microliter final volume. The sample was transferred to ice-cold porcelain spot plates and photolysed for 60 second using a 254 nm UVG-11 Mineralight lamp at a distance of 2 cm (1.0 J/m^2) to photolabel the RNase L/8-azido-p3 A3 complex. A ribosomal RNA cleavage assay was performed as described above, but using the photolabelled complex.

RNase L [5] = test: Radiobinding assay: competition with p3 A4 [^32 P]pCp for binding to RNase L in L929 cell extracts; parameters: species or system murine; conditions: in words
Description: RNase L was obtained from L929 cells by the following procedure. The L929 cells were maintained in monolayer culture in Dulbecco's modified Eagle medium supplemented with 5% bovine serum. Monolayers were tested with 200 units/ml of mouse interferon for 20 hours. Cell extracts of the L929 cells were prepared by collecting the cells by trypsinization, washing them once with phosphate-buffered saline and lysing the cells in NP40 buffer according to the method of Silverman, et al., Eur. J. Biochem. 124:131-138 (1982).
The ability of 8-azido-p3 A3 to compete with p3 A4 -[^32 P]pCp for binding to RNase L in the L929 cell extracts was compared to p3 A3 using radiobinding assays (50 micrograms of protein/assay) according to the method of Knight et al., Methods Enzymol. 79:216-227 (1981). […] 8-Azido-p3 A3 (FIG. 1A, solid circle data points) binds to RNase L with an IC50 of 2×10^-9 M, which is equivalent to the IC50 of authentic p3 A3 (FIG. 1A, solid triangle data points).

Substance	size of photolabelled protein ([1]; 1×10^-6 M [gamma-^32 P]2-azido-p3 A3, 60 s UV, protein a)	UV exposure time for maximal photo-crosslinking [1]	molecular weight of protein(s) specifically photolabelled / cross-linked [1]	number of proteins photolabelled / cross-linked [1]	final concentration at which RNase L is activated to degrade rRNA to specific cleavage products (RNase L [2])	concentration dependence of rRNA degradation (RNase L [2])	potency in rRNA degradation relative to authentic p3 A3 (RNase L [2])	biological activity (RNase L binding and activation) relative to authentic 2-5A (RNase L [2])	potency in activating RNase L relative to authentic p3 A3 (RNase L [3])	rRNA cleavage by RNase L after photolabelling (RNase L [4])	inhibition of p3 A4 [^32 P]pCp binding to RNase L (RNase L [5])
5'-0-triphosphoryl-(2-azidoadenylyl)(2'-5')2-azidoadenylyl(2'5')2-azidoadenosine [2-azido-p3 A3]	185,000 dalton	60 s	185,000	one	10^-9 M	concentration dependent	as potent as authentic p3 A3	almost identical to that of authentic 2-5A	–	–	–
5'-0-triphosphoryl-(8-azidoadenylyl)(2'-5')8-azidoadenylyl(2'-5')8-azidoadenosine [8-azido-p3 A3]	–	60 s	46,000-158,000	six	10^-9 M	concentration dependent	as potent as authentic p3 A3	almost identical to that of authentic 2-5A	equipotent to authentic p3 A3	observed to cleave 18S and 28S rRNA to the same specific cleavage products characteristic of RNase L activation by 8-azido-p3 A3 without photoactivation	inhibited p3 A4 [^32 P]pCp binding to RNase L in a concentration dependent manner

Source: US4990498A, “2- and 8-azido(2'-5')oligoadenylates and antiviral uses thereof” (Temple University-of the Commonwealth System of Higher …, priority 1988, dated 1991)
